Test results reported in US8273788B2, “Five-membered iminocyclitol derivatives as selective and potent glycosidase inhibitors: new structures for antivirals and osteoarthritis therapeutics” (Academia Sinica, Taiwan, priority 2005, dated 2012).

Tests used:
[1] = biological target: N-acetyl-β-hexosaminidase; test: N-acetyl-β-hexosaminidase inhibition assay (in situ screen, IC50, Ki); assay type: biochemical, jack bean
Description: (§1) A mixture of iminocyclitol 4, a carboxylic acid (1 equiv, Scheme 2), diisopropyl ethylamine (DIEA, 2.2 equiv), and (1H-benzotriazole-1-yl)-1,1,3,3-tetramethyl-uronium hexafluorophosphate (HBTU, 1.1 equiv) in DMSO was shaken in 96-well microtiter plates for 5 h. Crude reaction products were randomly selected (30%) and analyzed by ESI-MS to ensure the presence of the desired products. The reaction mixture was diluted by appropriate buffer solutions and transferred to another 96-well microtiter plate for screening directly without any purification. […] Assuming the amide formation is complete, the percentage of inhibition relative to the control was calculated on the basis of absorbance at 405 nm for p-nitrophenol released from their corresponding substrates.
(§2) Enzyme assay. General procedure for the assay with various glycosidases. The initial velocities of the hydrolysis were measured spectrophotometrically at various concentrations of p-nitrophenyl-glycopyranoside (4 mM, 2 mM, 1 mM, 0.5 mM, 0.25 mM, 0.125 mM, 0.0625 mM) at 405 nm using Bio Assay Reader (Perkin Elmer HTS 7000 Plus) at 30° C. The obtained data were fitted into the Michaelis-Menten equation by using the Kaleida Graph program to determine the apparent Km values. […] The assays performed in wells of the microtiter plate contained either sodium phosphate buffer (50 mM, pH 7, for α- and β-glucosidase, α- and β-galactosidase, α- and β-mannosidase, α-fucosidase), or Mcllvaine's buffer (25 mM, pH 6, N-acetyl-β-hexosaminidase, jack bean).
(§3) The secondary plot was generated by plotting the apparent Km values as a function of inhibitor concentrations. Ki was calculated from the negative value of the x-intercept of this plot.

β-glucosidase = β-glucosidase inhibition assay (in situ screen, IC50, Ki); assay type: biochemical, almonds
Description: as §1, §2, §3

[2] = biological target: human N-acetyl-β-hexosaminidases; settings: previous study [30]; cited from earlier work
α-glucosidase = biological target: T1, α-glucosidase (Saccharomyces cerevisiae, UniProt P53341); test: α-glucosidase inhibition assay (in situ screen, IC50, Ki); assay type: biochemical, baker's yeast
T1 construct: purchased Sigma Co. (St. Louis, Mo.); host or cells: baker's yeast
T1 sequence (P53341 whole entry): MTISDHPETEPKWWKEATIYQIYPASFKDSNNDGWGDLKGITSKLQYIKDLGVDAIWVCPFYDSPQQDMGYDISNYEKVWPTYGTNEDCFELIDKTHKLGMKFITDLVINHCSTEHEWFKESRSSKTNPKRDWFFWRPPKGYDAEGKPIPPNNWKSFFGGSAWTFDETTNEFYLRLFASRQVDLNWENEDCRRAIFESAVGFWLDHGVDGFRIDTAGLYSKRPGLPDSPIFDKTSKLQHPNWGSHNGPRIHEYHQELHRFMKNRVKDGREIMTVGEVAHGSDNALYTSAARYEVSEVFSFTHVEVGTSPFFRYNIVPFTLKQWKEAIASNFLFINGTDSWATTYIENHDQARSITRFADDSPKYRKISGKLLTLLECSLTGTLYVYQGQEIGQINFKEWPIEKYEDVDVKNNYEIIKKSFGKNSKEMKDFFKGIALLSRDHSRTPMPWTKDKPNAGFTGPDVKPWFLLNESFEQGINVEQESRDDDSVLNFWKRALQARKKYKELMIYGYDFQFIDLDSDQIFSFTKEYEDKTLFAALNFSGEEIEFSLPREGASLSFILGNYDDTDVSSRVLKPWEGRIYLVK
Description: as §1
General procedure for coupling reactions and in situ screening. To a DMSO solution (10 μL) in each well of a 96-well microtiter plate was added each carboxylic acid (10 μL from a 10 mm stock solution in DMSO, 0.1 μmol), HBTU (10 μL from a 11 mm stock solution in DMSO, 1.1 equiv, 0.11 μmol), and DIEA (10 μL from a 22 mM stock solution in DMSO, 2.2 equiv, 0.22 μmol).
as §2, §3

[3] = system: dengue virus serotype 2 (DEN-2); test: Anti-DEN-2 cell-based assay (plaque forming assay, BHK-21 cells); settings: M.O.I. = 0.1, virus production, BHK-21 cells; for IC50: read-out: DEN IC50; for IC90: read-out: DEN IC90
SARS-CoV = assay type: cell-based, SARS-CoV (H. K. strain); settings: Vero E6 cells
[4] = system: Japanese encephalitis virus (JEV); test: Anti-JEV cell-based assay (plaque forming assay, BHK-21 cells); settings: M.O.I. = 0.1, virus production, BHK-21 cells; for IC50: read-out: JEV IC50; for IC90: read-out: JEV IC90
BHK-21 cells = test: XTT cell viability assay; assay type: cell-based; settings: 10 μM, FIG. 2A
Description: XTT assay. To determine cell viability, a colorimetric XTT-based assay was performed (Cell Proliferation Kit II; Roche). BHK-21 cells in a 96-well plate were incubated with various concentrations of inhibitors for 2 days before the XTT labeling reagent was added to the culture medium. Cells were incubated at 37° C. for about 30 min and then read by an enzyme-linked immunosorbent assay (ELISA) reader at 450 nm (Molecular Devices).

[5] = system: human chondrosarcoma cells; settings: cell-associated fraction and culture supernatant; previous study; cited from earlier work
[6] = biological target: human placenta N-acetyl-β-hexosaminidase; test: Kinetic analysis of human placenta β-hexosaminidase; assay type: biochemical; settings: substrate 4-MU-GNAc, pH 4.5
Description: Our strategy began with reductive amination of compound 5 with aldehydes of different lengths to give compounds 43-49 (FIG. 4). The intermediates were either deprotected under acidic conditions or hydrogenolysed to give primary amines 50-56. […] Thus, the inhibition studies of compounds 51-56 against human placenta N-acetyl-β-hexosaminidase were carried out. 4-Methylumbelliferyl N-acetyl-β-D-glucosaminide (4-MU-GNAc) was used as the substrate. The apparent Km and Vmax values for each substrate were calculated from the Lineweaver-Burke double reciprocal plot of [1/v]/[1/S]. The Ki values were determined from a replot of the Km (app) vs the inhibitor concentration. […] (FIG. 4). […] Compound 54 with a heptamine moiety was the strongest inhibitor. […] As the crystal structure of human β-hexosaminidase B is now avalible,^[43] its complex with 54 was modeled to reveal a narrow hydrophobic cleft in the active site, which is mainly enclosed by the side-chain groups of residues W424, Y450, […], L453 and the backbone of residues K425 and D426 (FIG. 5). The amino group at the terminal site is expected to be largely protonated when binding with the enzyme. It presumably forms a salt bridge with the secondary aglycon binding site of the enzyme.^[44] It appears that the alkyl linkage is long enough to bring the amine end near enough to have hydrogen-bond interactions with the backbone carbonyl of K425 and A447 and a possible ionic interaction with the carboxyl group of D426.
Kinetic analysis of human placenta β-hexosaminidase. Incubations were performed in a total volume of 200 μL. Unless otherwise stated, reaction mixtures contained 100 mM citrate buffer (pH 4.5), various amount of 4-methylumbelliferyl N-acetyl-β-D-glucosaminide, and various amounts of inhibitors with 0.02 mU/well of β-hexosaminidase. After incubation for 15 min at 30° C., the reaction was terminated by the addition of 0.5 M sodium glycine buffer, pH 10.5. Enzyme activity was measured by the release of 4-methylumbelliferone with the excitation wavelength of 360 nm and the emission wavelength of 460 nm.

[7] = system: Japanese encephalitis virus (JEV); settings: earlier work [16]; cited from earlier work
[8] = system: dengue virus serotype 2 (DEN-2); settings: earlier work [16]; cited from earlier work
[9] = reaction product at 20 μM, in situ screening

## CC(=O)NC[C@H]1N[C@H](CO)[C@@H](O)[C@@H]1O [Compound 5]
[1]; pure compound, read-out: N-acetyl-β-hexosaminidse IC50
  IC50: 0.16 µM
[1]; reaction product at 30 μM, in situ screening
  N-acetyl-β-hexosaminidse Inhibition (%): 85%
[1]; value in brackets, read-out: N-acetyl-β-hexosaminidse (Ki)
  Ki: 0.022 µM
β-glucosidase; pure compound
  IC50: > 500 µM
β-glucosidase; [9]
  β-glucosidase Inhibition (%): 20%
[2]
  Ki: 0.024 µM
α-glucosidase; pure compound
  IC50: 280 µM
α-glucosidase; [9]
  inhibition at 20 µM: 12%

## CCCCCCCCCCN1C(CO)C(O)C(O)C1CNC(=O)C1Cc2ccccc21 (stereo not drawn) [Compound 37]
[3]
  IC50: 4.7 µM
  IC90: 9.2 µM
SARS-CoV
  IC50: 3.3 to 10 µM
[4]
  IC50: 9.6 ± 0.8 µM
  IC90: 18 ± 0.2 µM

## CCCCCCCCCCCCN1C(CO)C(O)C(O)C1CNC(=O)C1Cc2ccccc21 (stereo not drawn) [Compound 38]
BHK-21 cells
  cytotoxicity (XTT assay, cell proliferation): low level of cytotoxicity
[3]
  IC50: 6 ± 0.5 µM
  IC90: 9.1 ± 0.3 µM
[4]
  IC50: 7.6 ± 0.1 µM
  IC90: 9.7 ± 0.1 µM

## CC(=O)NC[C@@H]1[C@@H](O)[C@H](O)[C@@H](CO)N1C [Compound 42, (2R,3R,4R,5R)—N-methyl-2-(acetamido-methyl)-3,4-dihydroxy-5-(hydroxymethyl)pyrrolidine]
[2]
  Ki: 0.024 µM
[5]
  effect on glycosaminoglycans (GAGs): accumulation of glycosaminoglycans (GAGs) in the cell-associated fraction and a decrease in the release of GAGs into the culture supernatant

## CC(=O)NCC1C(O)C(O)C(CO)N1CCCCCCCN (stereo not drawn) [Compound 54]
[6]
  Ki: 0.0026 µM

## CC(=O)NCC1C(O)C(O)C(CO)N1CCOCCOCCN (stereo not drawn) [Compound 56]
[6]
  Ki: 0.06 µM

## CCCCCCN1C(CO)C(O)C(O)C1CNC(C)=O (stereo not drawn) [Compound 57]
[6]
  Ki: 0.18 µM

## CCCCCCCN1C(CO)C(O)C(O)C1CNC(C)=O (stereo not drawn) [Compound 58]
[6]
  Ki: 0.25 µM

## CCCCCCCCN1C(CO)C(O)C(O)C1CNC(C)=O (stereo not drawn) [Compound 59]
[6]
  Ki: 0.16 µM

## CCCCCCCCCN1C[C@H](O)[C@@H](O)[C@@H](O)[C@H]1CO [NN-DGJ, N-nonyldeoxygalactonojirimycin]
[7]
  inhibition of JEV: did not inhibit
[8]
  inhibition of DEN-2: did not inhibit
